Data as given in US8575170B2, “Flurbiprofen analogs and methods of use in treating cancer” (The Regents of the Unversity of Colorado, a body corporate, priority 2010, dated 2013).
Like-named read-outs stand apart in the source and are kept apart here.

Columns and labels:
[1] = test system: MSK921; experiment: MTT cell viability, MSK921; format: cell-based; conditions: Head and neck cancer cell line MSK921
Description: (§1) The ability of the flurbiprofen analog compounds of the invention to inhibit cancer cell growth and survival (viability) in a variety of cancer lines was examined in a standard MTT assay for cell viability, as detailed in Example 2.
(§2) A similar study was conducted on 14 […] cancer cell lines, identified in Table 2.
(§3) Cell growth and survival following treatment with N—[(S)-2-Fluoro-α-methyl-4-biphenylacetyl]-[L-(4-phenylphenyl)alanine]-N-(2,2,6,6-tetramethyl-4-piperidinyl)amide (GCBH-110=B1031; (S)-Fmba-L-Bip-Atmp) were measured by a rapid colorimetric assay based on the tetrazolium salt MTT (3-(4,5-dimethylthiazol-2-yl)-2,5-diphenyl tetrazolium bromide) (Mosmann, J. Immunol. Methods 65: 55-63, 1983, with minor modifications).
(§4) Briefly, approximately 1,000-5,000 cancer cells from 15 different cancer cells lines were plated in 100 μL of growth medium in 96-well flat-bottomed microtiter plates. Cells were incubated overnight to allow recovery. Compounds to be tested were added to the cells in triplicate in a range of concentrations and the cells were incubated at 37° C., 5% CO2, with 100% humidity. Control cells were treated in the same way without antagonists. […] Plates were incubated for 4 days, allowing sufficient time for cell replication and compound-induced cell death to occur. […] Absorbance was immediately determined using a scanning multiwell plate reader. […]

[2] = test system: L35; experiment: MTT cell viability, L35; format: cell-based; conditions: Pancreatic cancer cell, 96 h; Pancreatic cancer cells L35; 4 days incubation
From the text: as §1
(§5) Similar results were obtained for the effect of the B1031 compound on the 14 pancreatic tumor cells lines shown in Table 3 below, where the dose dependent effect of the compound on survival of the pancreatic cancer cell lines is shown in FIG. 5.
(§6) The studies reported in Tables 1-3 above were carried out by incubating the cells in the test compound for four days, under standard cell-culture conditions, and measuring cell survival on day 5 (see Example 2).
as §3
(§7) Briefly, approximately 1,000-5,000 cancer cells from 15 different cancer cells lines were plated in 100 μL of growth medium in 96-well flat-bottomed microtiter plates. Cells were incubated overnight to allow recovery. […] Absorbance was immediately determined using a scanning multiwell plate reader.

[3] = test system: H3225; experiment: MTT cell viability, H3225; format: cell-based; conditions: 96 h; Adenocarcinoma lung cell line H3225; 4 days incubation
Description: as §1, §6, §3
(§8) Briefly, approximately 1,000-5,000 cancer cells from 15 different cancer cells lines were plated in 100 μL of growth medium in 96-well flat-bottomed microtiter plates. Cells were incubated overnight to allow recovery. Compounds to be tested were added to the cells in triplicate in a range of concentrations and the cells were incubated at 37° C., 5% CO2, with 100% humidity. Control cells were treated in the same way without antagonists. […] Absorbance was immediately determined using a scanning multiwell plate reader.

[4] = test system: H2122; experiment: MTT cell viability, H2122 lung carcinoma cell line; format: cell-based; conditions: for IC50: Homo sapiens
Description: as §1
The IC50 values given in Tables 1-4 were measured using the B1031 ([…]) compound) shown in Section IIB above. To confirm the generality of the results with respect to other fluribprofen analogs prepared in accordance with the invention, IC50 values for the other 11 analog compounds given in Section IIB were similarly determined for the H2122 lung carcinoma cell line.
as §6, §3
(§9) Briefly, approximately 1,000-5,000 cancer cells from 15 different cancer cells lines were plated in 100 μL of growth medium in 96-well flat-bottomed microtiter plates. Cells were incubated overnight to allow recovery. Compounds to be tested were added to the cells in triplicate in a range of concentrations and the cells were incubated at 37° C., 5% CO2, with 100% humidity. Control cells were treated in the same way without antagonists. […] Plates were incubated for 4 days, allowing sufficient time for cell replication and compound-induced cell death to occur. On day 5, 25 μL of a 2 mg/mL solution of MTT (Sigma) dissolved in RMPI-1640 was added to each well. The plate was incubated for 4 h at 37° C. The supernatant liquid was removed and the blue formazan complex was dissolved by adding 100 μL of 0.02 N HCl in 75% isopropanol to all wells. Absorbance was immediately determined using a scanning multiwell plate reader.

[5] = test system: pancreatic cancer cell lines; experiment: MTT cell viability, panel of pancreatic cancer cell lines; format: cell-based
From the text: as §1, §5, §3
as §8, with “humidity.” for “humidity. Control cells were treated in the same way without antagonists.”

[6] = test system: UMSCC2; experiment: MTT cell viability, UMSCC2; format: cell-based; conditions: UM-SCC2; Head and neck cancer cell line UMSCC2
Description: as §1, §2, §3, §4

[7] = test system: HN31; experiment: MTT cell viability, HN31; format: cell-based; conditions: Head and neck cancer cell line HN31
Description: as §1, §2, §3, §4

[8] = test system: A549; experiment: MTT cell viability, A549; format: cell-based; conditions: Homo sapiens, 96 h; Adenocarcinoma lung cell line A549; 4 days incubation
Description: as §1, §6, §3, §8

[9] = Solubility of flurbiprofen analog compounds; format: physicochemical; conditions: medium in which the compound is soluble, Table 5
[10] = test system: L33; experiment: MTT cell viability, L33; format: cell-based; conditions: Pancreatic cancer cell, 96 h; Pancreatic cancer cells L33; 4 days incubation
From the text: as §1, §5, §6, §3, §7

[11] = test system: H417; experiment: MTT cell viability, H417; format: cell-based; conditions: Homo sapiens, NCI-H417, 96 h; SCLC lung cell line H417; 4 days incubation
Description: as §1, §6, §3, §8

[12] = test system: H1334; experiment: MTT cell viability, H1334; format: cell-based; conditions: 96 h; Large Cell lung cell line H1334; 4 days incubation
Description: as §1, §6, §3, §8

[13] = test system: H460; experiment: MTT cell viability, H460; format: cell-based; conditions: Homo sapiens, NCI-H460, 96 h; Large Cell lung cell line H460; 4 days incubation
Description: as §1, §6, §3, §8

[14] = test system: head and neck cancer cell lines; experiment: MTT cell viability, panel of head and neck cancer cell lines; format: cell-based
Description: as §1, §2, §3, §9
Similarly, cell growth and survival following treatment with GCBH-110=B1031 was tested using the same MTT assay in 6 head and neck cancer cell lines. GCBH-110=B1031 caused 50% cell death at concentrations between about 0.3 μM and about 2 μM under these conditions (FIG. 3). […] GCBH-110=B1031 caused 50% cell death at concentrations between about 0.2 μM and about 0.8 μM under these conditions.

[15] = test system: WM239a; experiment: MTT cell viability, WM239a; format: cell-based; conditions: Melanoma cell line WM239a
From the text: as §1
The results for the several cell lines above were also consistent with IC50 values measured for two melanoma cell lines shown in Table 4 below.
as §3, §8

[16] = test system: H661; experiment: MTT cell viability, H661; format: cell-based; conditions: Homo sapiens, NCI-H661, 96 h; Large Cell lung cell line H661; 4 days incubation
Description: as §1, §6, §3, §8

[17] = test system: H1435a; experiment: MTT cell viability, H1435a; format: cell-based; conditions: 96 h; Adenocarcinoma lung cell line H1435a; 4 days incubation
Description: as §1, §6, §3, §8

[18] = test system: Panc-1005; experiment: MTT cell viability, Panc-1005; format: cell-based; conditions: Homo sapiens, Panc1005, 96 h; Pancreatic cancer cells Panc-1005; 4 days incubation
From the text: as §1, §5, §6, §3, §7

[19] = test system: CaLu3; experiment: MTT cell viability, CaLu3; format: cell-based; conditions: Homo sapiens, Calu-3, 96 h; Adenocarcinoma lung cell line CaLu3; 4 days incubation
Description: as §1, §6, §3, §8

[20] = test system: H719; experiment: MTT cell viability, H719; format: cell-based; conditions: 96 h; SCLC lung cell line H719; 4 days incubation
Description: as §1, §6, §3, §8

[21] = test system: Panc-327; experiment: MTT cell viability, Panc-327; format: cell-based; conditions: Pancreatic cancer cell, 96 h; Pancreatic cancer cells Panc-327; 4 days incubation
From the text: as §1, §5, §6, §3, §7

[22] = test system: 1586; experiment: MTT cell viability, 1586; format: cell-based; conditions: Head and neck cancer cell line 1586
Description: as §1, §2, §3, §4

C[C@H](C(=O)N[C@@H](Cc1ccc(-c2ccccc2)cc1)C(=O)NC1CC(C)(C)NC(C)(C)C1)c1ccc(-c2ccccc2)c(F)c1 [GCBH-110, N—[(S)-2-Fluoro-α-methyl-4-biphenylacetyl]-[L-(4-phenylphenyl)alanine]-N-(2,2,6,6-tetramethyl-4-piperidinyl)amide]
IC50 [1]: 0.77 µM
IC50 [2]: 0.8 µM
IC50 [3]: 1.1 µM
activity in inhibiting H2122 cells relative to Aza-dC ([4]; H2122 lung cancer cell line, versus DNA demethylase inhibitor Aza-dC): many-fold more active
activity in inhibiting H2122 cells relative to Syn275 (fold less active) ([4]; H2122 lung cancer cell line, versus HDACi Syn275): about 4 fold
IC50 ([4]; NCI-H2122, 96 h, Adenocarcinoma lung cell line H2122, 4 days incubation, read-out: IC50): 0.15 µM
IC50 ([4]; NCI-H2122, IC50 values for the H2122 lung carcinoma cell line, Table 5, read-out: H2122 In vitro): 0.15 µM
IC50 ([5]; majority of the pancreatic cell lines, read-out: IC50, majority of the cell lines): ≤ 0.7 µM
IC50 ([5]; span over 14 pancreatic tumor cell lines, Table 3, FIG. 5, read-out: IC50 values): 0.16 to 3.1 µM
IC50 [6]: 0.95 µM
IC50 [7]: 0.54 µM
IC50 [8]: 0.55 µM
Solubility [9]: 50% DMSO
IC50 [10]: 0.7 µM
IC50 [11]: 1.4 µM
IC50 [12]: 0.4 µM
IC50 [13]: 0.48 µM
IC50 ([14]; 6 head and neck cancer cell lines, FIG. 3, read-out: concentrations causing 50% cell death): 0.3 to 2 µM
IC50 ([14]; another panel of head and neck cancer cell lines, longer treatment exposure, FIG. 4, read-out: concentrations causing 50% cell death): 0.2 to 0.8 µM
IC50 ([14]; majority of the head and neck cell lines, read-out: IC50 value, majority of the cell lines): < 0.5 µM
IC50 ([14]; span over 14 head and neck cancer cell lines, Table 2, FIGS. 3 and 4, read-out: IC50 values): 0.2 to 2 µM
IC50 [15]: 0.23 µM
IC50 [16]: 0.35 µM
IC50 [17]: 0.11 µM
IC50 [18]: 0.7 µM
IC50 [19]: 1.3 µM
IC50 [20]: 1.08 µM
IC50 [21]: 0.67 µM
IC50 [22]: 1.5 µM
